Calls of active or inactive are those of the source.
How the values were obtained:
[1] = HEp-2 cell cytotoxicity, dose response, cytotoxicity control for RSV inhibitor project, HTS (AID 2410); type: functional; details: human respiratory syncytial virus
Vasopressin V1a receptor = Vasopressin V1a receptor (Homo sapiens, UniProt P37288); experiment: Counterscreen for Oxytocin Receptor (OXTR) agonists: Fluorescence-based cell-based high throughput dose response assay to identify agonists of the vasopressin 1 receptor (V1R). [Related pubchem assays: 2435 (Primary screen (OXTR agonists in singlicate)), 434991 (Counterscreen (V1R agonists in triplicate)), 2482 (Summary (OXTR agonists)) …; type: functional
Vasopressin V1a receptor, sequence (P37288 whole entry): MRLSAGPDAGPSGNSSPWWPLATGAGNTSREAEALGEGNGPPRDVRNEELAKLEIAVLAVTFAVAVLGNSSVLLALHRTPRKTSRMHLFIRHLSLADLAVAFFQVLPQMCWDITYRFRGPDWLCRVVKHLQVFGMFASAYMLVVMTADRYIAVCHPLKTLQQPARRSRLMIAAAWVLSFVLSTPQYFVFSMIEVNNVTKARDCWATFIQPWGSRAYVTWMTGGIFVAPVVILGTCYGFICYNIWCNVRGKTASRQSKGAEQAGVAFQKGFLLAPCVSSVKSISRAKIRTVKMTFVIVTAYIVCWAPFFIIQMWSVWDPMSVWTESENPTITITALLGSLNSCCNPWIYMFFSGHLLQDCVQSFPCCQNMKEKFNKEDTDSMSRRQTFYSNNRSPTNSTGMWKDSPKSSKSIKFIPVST

Oxytocin receptor = Oxytocin receptor (Homo sapiens, UniProt P30559); experiment: Fluorescence-based cell-based high throughput dose response assay for agonists of the Oxytocin Receptor (OXTR). [Related pubchem assays: 2435 (Primary screen (OXTR agonists in singlicate)), 434991 (Counterscreen (V1R agonists in triplicate)), 2482 (Summary (OXTR agonists)), 434963 (Confirmation screen (OXTR agonists in triplicate))]; type: functional
Oxytocin receptor, sequence (P30559 whole entry): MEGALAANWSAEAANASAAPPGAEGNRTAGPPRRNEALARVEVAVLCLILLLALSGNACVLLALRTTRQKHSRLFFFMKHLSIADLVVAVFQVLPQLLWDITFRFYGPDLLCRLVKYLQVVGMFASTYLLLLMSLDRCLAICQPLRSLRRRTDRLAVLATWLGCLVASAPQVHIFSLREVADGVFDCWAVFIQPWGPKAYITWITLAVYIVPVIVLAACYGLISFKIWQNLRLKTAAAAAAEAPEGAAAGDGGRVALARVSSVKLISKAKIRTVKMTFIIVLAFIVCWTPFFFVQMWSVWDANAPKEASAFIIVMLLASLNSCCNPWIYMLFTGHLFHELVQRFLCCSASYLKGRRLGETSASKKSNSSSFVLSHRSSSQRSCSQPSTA

[2] = molecular target: T1, Corticotropin-releasing factor receptor 2/Corticotropin-releasing factor-binding protein (Homo sapiens, UniProt P24387+Q13324); experiment: activators of CRF receptor 2 with binding protein – uHTS hits, confirmation (AID 602473); type: functional; details: read-out: EC50_Mean
T1 sequence (Q13324 whole entry): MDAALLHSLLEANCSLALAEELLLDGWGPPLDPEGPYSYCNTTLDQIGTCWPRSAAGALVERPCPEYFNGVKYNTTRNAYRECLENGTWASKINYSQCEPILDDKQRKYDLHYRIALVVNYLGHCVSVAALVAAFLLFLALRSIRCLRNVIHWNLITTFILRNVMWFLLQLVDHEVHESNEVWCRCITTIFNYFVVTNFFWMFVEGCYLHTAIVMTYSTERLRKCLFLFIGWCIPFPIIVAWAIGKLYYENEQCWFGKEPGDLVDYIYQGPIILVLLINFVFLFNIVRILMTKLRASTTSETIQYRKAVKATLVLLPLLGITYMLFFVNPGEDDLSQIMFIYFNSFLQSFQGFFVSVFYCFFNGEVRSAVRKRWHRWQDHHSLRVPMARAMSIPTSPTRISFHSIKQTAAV
T1 sequence (P24387 whole entry): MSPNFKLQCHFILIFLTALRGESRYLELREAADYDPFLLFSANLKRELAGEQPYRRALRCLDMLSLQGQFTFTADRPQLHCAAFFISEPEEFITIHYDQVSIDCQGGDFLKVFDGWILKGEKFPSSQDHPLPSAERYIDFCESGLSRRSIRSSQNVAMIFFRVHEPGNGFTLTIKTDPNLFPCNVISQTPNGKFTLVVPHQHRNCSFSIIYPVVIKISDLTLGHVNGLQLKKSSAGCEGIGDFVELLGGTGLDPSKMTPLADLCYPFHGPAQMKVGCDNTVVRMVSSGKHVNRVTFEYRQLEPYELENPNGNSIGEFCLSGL

[3] = Vero cell cytotoxicity, dose response, cytotoxicity control for Vif-APOBEC3G degradation inhibitor project, Vero cells (AID 1117358); type: functional; details: Human immunodeficiency virus 1, Vero
[4] = molecular target: Serine/threonine-protein phosphatase PP1-alpha catalytic subunit (Homo sapiens, UniProt P62136); experiment: PP1 phosphatase inhibitors, dose response, biochemical, fluorescence (AID 2403);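 also: phosphatase turnover of OMFP into fluorescent 3-O-methylfluorescein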
Serine/threonine-protein phosphatase PP1-alpha catalytic subunit, sequence (P62136 whole entry): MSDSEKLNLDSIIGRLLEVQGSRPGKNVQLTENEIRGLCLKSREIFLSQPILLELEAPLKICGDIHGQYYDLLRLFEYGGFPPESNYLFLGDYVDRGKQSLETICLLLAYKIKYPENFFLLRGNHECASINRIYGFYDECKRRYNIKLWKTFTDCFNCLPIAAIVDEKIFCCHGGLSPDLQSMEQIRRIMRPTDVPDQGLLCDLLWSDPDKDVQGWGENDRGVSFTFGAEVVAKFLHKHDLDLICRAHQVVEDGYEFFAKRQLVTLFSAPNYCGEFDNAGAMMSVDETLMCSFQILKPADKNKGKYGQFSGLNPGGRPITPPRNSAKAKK

[5] = molecular target: T2, Serine/threonine-protein phosphatase (Homo sapiens, UniProt Q9BPW0); experiment: Counterscreen for inhibitors of PP1: fluorescence-based biochemical high throughput dose response assay to identify inhibitors of Protein Phosphatase 5 (PP5). [Related pubchem assays: 2034 (Summary (PP5 inhibitors)), 1987 (PP5 inhibitors in singlate), 2235 (PP1 inhibitors in singlate)]
T2 sequence (Q9BPW0 whole entry): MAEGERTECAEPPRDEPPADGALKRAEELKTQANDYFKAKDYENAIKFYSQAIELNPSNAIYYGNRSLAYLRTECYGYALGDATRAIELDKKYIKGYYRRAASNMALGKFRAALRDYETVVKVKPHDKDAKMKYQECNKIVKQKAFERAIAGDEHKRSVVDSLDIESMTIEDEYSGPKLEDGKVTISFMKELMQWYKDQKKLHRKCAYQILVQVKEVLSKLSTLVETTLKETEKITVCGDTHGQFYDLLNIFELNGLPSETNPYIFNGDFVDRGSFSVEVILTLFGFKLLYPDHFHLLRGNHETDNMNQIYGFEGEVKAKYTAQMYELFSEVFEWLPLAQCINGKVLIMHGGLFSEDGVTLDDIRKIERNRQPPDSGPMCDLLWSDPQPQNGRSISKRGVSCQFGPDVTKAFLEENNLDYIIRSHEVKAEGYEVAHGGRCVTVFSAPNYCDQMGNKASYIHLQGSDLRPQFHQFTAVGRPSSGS

Nonstructural protein 1 = Nonstructural protein 1 (Influenza A virus, UniProt Q194T2); type: functional, Influenza A virus (A/California/07/2009(H1N1))
Nonstructural protein 1, sequence (Q194T2 whole entry): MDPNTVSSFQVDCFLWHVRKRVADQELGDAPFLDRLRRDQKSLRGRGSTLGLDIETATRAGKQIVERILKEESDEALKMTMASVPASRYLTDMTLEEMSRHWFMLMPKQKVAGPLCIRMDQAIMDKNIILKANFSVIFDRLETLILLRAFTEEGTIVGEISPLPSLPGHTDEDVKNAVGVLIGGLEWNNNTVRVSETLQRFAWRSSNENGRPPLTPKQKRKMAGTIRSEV

[6] = molecular target: G2/mitotic-specific cyclin-B1 (Homo sapiens, UniProt P14635); experiment: Counterscreen assay for inhibitors of Wee1 degradation: dose response cell-based assay to identify inhibitors of cyclin B degradation. [Related pubchem assays: 1410, 1321 ]; type: functional
G2/mitotic-specific cyclin-B1, sequence (P14635 whole entry): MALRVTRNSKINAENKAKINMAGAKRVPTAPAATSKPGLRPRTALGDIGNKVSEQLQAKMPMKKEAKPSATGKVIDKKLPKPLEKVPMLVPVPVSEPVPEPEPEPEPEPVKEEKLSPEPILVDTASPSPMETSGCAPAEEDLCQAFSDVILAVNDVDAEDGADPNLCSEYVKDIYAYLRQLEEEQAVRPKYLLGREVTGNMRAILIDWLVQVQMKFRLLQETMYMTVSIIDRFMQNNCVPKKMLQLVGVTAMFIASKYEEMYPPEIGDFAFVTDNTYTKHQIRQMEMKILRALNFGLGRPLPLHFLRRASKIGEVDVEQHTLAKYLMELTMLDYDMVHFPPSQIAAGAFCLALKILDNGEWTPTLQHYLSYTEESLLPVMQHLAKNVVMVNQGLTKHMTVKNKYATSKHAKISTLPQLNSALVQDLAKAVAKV

Wee1-like protein kinase = Wee1-like protein kinase (Homo sapiens, UniProt P30291); experiment: Dose Response Cell-based Assay for Inhibitors of Wee1 Degradation. [Related pubchem assays: 1410, 1321 ]; type: functional
Wee1-like protein kinase, sequence (P30291 whole entry): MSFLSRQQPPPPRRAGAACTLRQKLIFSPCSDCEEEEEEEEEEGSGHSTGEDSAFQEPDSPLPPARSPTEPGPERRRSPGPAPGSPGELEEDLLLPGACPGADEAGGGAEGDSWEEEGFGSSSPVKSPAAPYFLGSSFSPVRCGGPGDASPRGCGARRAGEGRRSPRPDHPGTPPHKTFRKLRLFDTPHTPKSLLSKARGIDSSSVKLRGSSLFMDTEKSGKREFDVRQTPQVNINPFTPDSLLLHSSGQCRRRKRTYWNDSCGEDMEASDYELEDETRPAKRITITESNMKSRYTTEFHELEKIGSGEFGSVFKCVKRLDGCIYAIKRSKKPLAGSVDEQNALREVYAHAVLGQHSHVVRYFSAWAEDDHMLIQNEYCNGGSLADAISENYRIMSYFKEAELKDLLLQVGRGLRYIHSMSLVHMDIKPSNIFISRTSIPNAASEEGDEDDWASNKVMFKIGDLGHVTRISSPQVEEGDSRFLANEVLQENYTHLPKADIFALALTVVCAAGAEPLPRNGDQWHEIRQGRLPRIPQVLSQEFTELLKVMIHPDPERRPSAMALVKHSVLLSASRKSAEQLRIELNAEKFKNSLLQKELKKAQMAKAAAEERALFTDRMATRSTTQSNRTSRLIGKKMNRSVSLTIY

[7] = THP-1 cell cytotoxicity, dose response, cytotoxicity control for non-replicating M. tuberculosis project (AID 489025); type: functional
[8] = Vero E6 cell cytotoxicity, dose response, cytotoxicity control for non-replicating M. tuberculosis project, secondary assay (AID 492998); type: functional, VeroE6; details: Vero C1008
[9] = cytotoxicity in HEK-293T cells, dose response, cytotoxicity control for TCR NF-kB inhibitor project, luminescence, T-cell screen hits (AID 489026); type: functional, cell-based;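 also: cells exposed to compound about 14 hours before the viability readout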
cells = type: functional
Aminopeptidase N = molecular target: T3, Aminopeptidase N (Plasmodium falciparum FcB1/Columbia, UniProt O96935); experiment: P. falciparum M1AAP inhibitors, biochemical, fluorogenic H-Leu-NHMec substrate, 1536-well (AID 1445); set-up: species or system Plasmodium falciparum 3D7, 3D7
T3 sequence (O96935 whole entry): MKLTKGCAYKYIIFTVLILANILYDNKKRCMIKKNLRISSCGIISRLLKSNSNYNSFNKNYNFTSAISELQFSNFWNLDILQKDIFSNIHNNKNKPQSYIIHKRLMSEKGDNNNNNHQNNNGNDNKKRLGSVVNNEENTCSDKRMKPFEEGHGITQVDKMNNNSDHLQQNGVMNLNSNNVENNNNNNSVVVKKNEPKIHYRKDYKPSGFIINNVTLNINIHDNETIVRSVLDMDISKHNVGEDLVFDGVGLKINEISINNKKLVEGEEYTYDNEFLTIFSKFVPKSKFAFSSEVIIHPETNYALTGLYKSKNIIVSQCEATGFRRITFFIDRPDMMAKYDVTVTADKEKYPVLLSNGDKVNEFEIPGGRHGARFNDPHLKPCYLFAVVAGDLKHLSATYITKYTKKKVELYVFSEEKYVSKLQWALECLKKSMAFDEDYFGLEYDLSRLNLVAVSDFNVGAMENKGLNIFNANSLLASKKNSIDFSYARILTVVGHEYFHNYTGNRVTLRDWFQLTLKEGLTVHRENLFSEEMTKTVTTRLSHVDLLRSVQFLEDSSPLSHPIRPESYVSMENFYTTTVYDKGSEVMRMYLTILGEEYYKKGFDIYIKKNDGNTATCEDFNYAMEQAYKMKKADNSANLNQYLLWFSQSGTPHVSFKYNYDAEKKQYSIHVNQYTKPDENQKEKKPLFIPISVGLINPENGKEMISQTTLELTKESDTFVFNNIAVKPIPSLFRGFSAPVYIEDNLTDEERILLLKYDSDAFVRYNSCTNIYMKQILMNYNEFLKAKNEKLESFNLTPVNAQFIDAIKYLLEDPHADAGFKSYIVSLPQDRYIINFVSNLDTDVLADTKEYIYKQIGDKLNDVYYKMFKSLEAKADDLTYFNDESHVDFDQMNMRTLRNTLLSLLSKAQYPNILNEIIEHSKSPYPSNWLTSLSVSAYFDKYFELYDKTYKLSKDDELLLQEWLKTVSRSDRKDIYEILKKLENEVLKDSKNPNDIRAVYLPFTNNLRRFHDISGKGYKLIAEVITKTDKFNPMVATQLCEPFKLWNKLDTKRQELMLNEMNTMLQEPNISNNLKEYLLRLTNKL

[10] = HIV-1 Env-mediated cell fusion inhibitors, dose response, CCR5-tropic Env (AID 2279); type: functional
Cysteine protease ATG4B = molecular target: T4, Cysteine protease ATG4B (Homo sapiens, UniProt Q9Y4P1); type: functional;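 also: Fluorescence-based dose-response confirmation assay measuring inhibition of ATG4B activity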
T4 sequence (Q9Y4P1 whole entry): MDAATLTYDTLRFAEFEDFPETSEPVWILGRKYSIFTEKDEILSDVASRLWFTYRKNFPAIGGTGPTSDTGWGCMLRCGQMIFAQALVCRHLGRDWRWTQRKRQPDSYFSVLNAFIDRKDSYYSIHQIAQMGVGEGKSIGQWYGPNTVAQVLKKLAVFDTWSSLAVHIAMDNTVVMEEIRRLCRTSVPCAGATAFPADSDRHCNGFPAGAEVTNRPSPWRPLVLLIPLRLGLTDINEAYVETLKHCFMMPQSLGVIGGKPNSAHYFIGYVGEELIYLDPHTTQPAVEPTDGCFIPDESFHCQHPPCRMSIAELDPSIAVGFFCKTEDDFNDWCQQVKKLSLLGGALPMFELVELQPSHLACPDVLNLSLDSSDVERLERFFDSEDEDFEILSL

Phospholipase A2 = Phospholipase A2 (Homo sapiens, UniProt P04054); type: functional;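 also: confirmatory dose-response counterscreen on phospholipase A2, testing hits that came from an ultra-high-throughput screen for ATG4B inhibitors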
Phospholipase A2, sequence (P04054 whole entry): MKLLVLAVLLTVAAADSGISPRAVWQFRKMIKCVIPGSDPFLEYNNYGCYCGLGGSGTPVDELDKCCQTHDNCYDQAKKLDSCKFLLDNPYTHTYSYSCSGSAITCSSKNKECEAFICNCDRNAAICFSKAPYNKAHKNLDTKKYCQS

[11] = molecular target: T1, Corticotropin-releasing factor receptor 2/Corticotropin-releasing factor-binding protein; experiment: Dose Response confirmation of uHTS hits for small molecule antagonists of the CRF-binding protein and CRF-R2 receptor complex.; type: functional; details: read-out: IC50_Mean
[12] = CRF-BP/CRF-R2 complex antagonists, dose response, cell-based, uHTS hits, 384-well (AID 651639); type: functional, Homo sapiens; details: read-out: IC50_Mean
NS3 = NS3 (Hepatitis C virus, UniProt A3EZJ3); experiment: PubChem AID 2173; set-up: species or system Hepacivirus hominis
NS3, sequence (A3EZJ3 whole entry): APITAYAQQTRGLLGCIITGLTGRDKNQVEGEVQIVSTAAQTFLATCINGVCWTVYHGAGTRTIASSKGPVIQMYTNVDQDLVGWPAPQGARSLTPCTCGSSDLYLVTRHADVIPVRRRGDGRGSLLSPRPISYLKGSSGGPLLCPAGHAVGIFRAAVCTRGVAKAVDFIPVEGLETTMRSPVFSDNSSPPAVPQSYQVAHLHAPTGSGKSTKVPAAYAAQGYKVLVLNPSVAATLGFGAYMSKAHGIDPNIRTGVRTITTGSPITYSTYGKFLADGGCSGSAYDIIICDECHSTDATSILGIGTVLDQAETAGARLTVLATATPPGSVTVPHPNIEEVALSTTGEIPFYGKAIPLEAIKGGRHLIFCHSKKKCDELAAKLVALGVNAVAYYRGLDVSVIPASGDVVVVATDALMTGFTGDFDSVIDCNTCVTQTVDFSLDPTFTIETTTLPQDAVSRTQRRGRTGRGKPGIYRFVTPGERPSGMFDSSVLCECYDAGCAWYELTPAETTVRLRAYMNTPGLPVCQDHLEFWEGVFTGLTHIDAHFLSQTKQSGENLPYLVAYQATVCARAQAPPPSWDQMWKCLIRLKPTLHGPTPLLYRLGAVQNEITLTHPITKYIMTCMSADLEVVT

[13] = M. tuberculosis growth inhibition, HTS (AID 449762); type: functional
[14] = molecular target: T5, Heat shock factor protein 1 (Mus musculus, UniProt P38532); experiment: HSF1 potentiators in luciferase reporter cells, confirmation, cell-based, NIH3T3, luminescence, dose retest (AID 435004); type: functional;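 also: stress induced by proteasome inhibitor MG132 added 30 min after compound; luciferase reporter driven by HSF1 response element in NIH3T3 cells; actives raise luminescence as potentiators of the MG132 stress response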
T5 sequence (P38532 whole entry): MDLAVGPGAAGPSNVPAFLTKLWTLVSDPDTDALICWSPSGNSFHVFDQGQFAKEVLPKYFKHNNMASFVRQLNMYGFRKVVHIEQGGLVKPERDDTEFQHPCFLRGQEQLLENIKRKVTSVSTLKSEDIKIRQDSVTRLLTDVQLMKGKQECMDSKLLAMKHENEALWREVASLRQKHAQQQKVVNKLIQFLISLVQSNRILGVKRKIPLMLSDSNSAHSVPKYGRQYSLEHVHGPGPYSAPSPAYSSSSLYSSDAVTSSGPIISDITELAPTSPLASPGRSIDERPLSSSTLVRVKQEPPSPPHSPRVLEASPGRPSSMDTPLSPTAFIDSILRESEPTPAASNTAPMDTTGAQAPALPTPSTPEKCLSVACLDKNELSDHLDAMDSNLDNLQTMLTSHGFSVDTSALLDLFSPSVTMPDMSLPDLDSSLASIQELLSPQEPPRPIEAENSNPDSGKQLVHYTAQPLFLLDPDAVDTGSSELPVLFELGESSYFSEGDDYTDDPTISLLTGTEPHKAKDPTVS

Cc1[nH]c2ccccc2c1C(=O)CN1C(=O)NC(C)(c2ccc(Cl)cc2Cl)C1=O (centres undefined)
CC50 [1]: 13.9 µM (active)
EC50 (Vasopressin V1a receptor): > 29.9 µM (not active)
EC50 (Oxytocin receptor): > 29.9 µM (not active)
EC50 [2]: 7.59 µM (active)
CC50 [3]: 38.2 µM (active)

O=C(Nc1nc(-c2ccccn2)cs1)C1CC(=O)N(c2ccc3c(c2)OCCO3)C1 (centres undefined)
IC50 [4]: 5.98 µM (active)
IC50 [5]: > 67 µM (not active)
IC50 (Nonstructural protein 1): 13.5 µM (active)

O=C(N=Nc1c(O)[nH]c2ccc(Br)cc12)c1ccccc1-n1cccc1
EC50 [6]: > 49.7 µM (not active)
EC50 (Wee1-like protein kinase): > 49.7 µM (not active)
CC50 [7]: 1.15 µM (active)
CC50 [8]: 4.28 µM (active)
IC50 [9]: > 80 µM (inactive)
IC50 (cells): > 50 µM (active)

Cc1ccc(N2C(=O)/C(=C\Nc3ccccc3-c3nnc(S)nc3O)c3ccccc3C2=O)c(C)c1
IC50 (Aminopeptidase N): 27.4 µM (active)
IC50 [10]: 39.9 µM (active)
IC50 (Cysteine protease ATG4B): 14 µM (active)
IC50 (Phospholipase A2): 10 µM (active)
IC50 [11]: 3.83 µM (active)
EC50 [2]: > 53 µM (inactive)
IC50 [12]: > 20 µM (inactive)

COc1ccccc1/C=C/C1=NC(=C\C=C/c2ccccc2)/C(=O)O1
IC50 (NS3): 24.1 µM (not active)
IC50 [13]: > 100 µM (active)
EC50 [14]: > 260 µM (inactive)

From ChEMBL document CHEMBL1201862, “PubChem BioAssay data set” (2004)
